# Experimental data as given in US8822754B2, “Ecdysone receptor-based inducible gene expression system” (Intrexon Corporation, priority 2000, dated 2014).
# Experiments:
# Assay type in all cases: cell-based, Choristoneura fumiferana
# [1] = system: GAL4CfEcRVP16; test: Transactivation of reporter genes through switch 1.6 in 293 cells; conditions: switch 1.6 GAL4CfEcRVP16, pGAL4RELuc
# Procedure: This construct was prepared so that both the GAL4 DNABD and the VP16AD were placed on the same molecule. GAL4DNABD (SEQ ID NO: 41) and VP16AD (SEQ ID NO: 45) were fused to CfEcRDEF (SEQ ID NO: 3) at N- and C-termini respectively.
# The same procedures described for CHO were followed for 293 cells except that the cells were plated in biocoated plates to avoid clumping.
# (§1) Cells were harvested 24-48 hr after adding ligands. […] Twenty μl of lysate was assayed.
# [2] = system: VP16CfEcR; test: Transactivation of reporter genes through switch 1.7 in CV1 cells; conditions: switch 1.7 VP16CfEcR, pEcRELuc
# Procedure: Six ecdysone response elements (“EcRE”; SEQ ID NO: 59) from the hsp27 gene were placed upstream of the promoter and a luciferase gene (SEQ ID NO: 57). This switch most probably uses endogenous RXR.
# The same procedures described for NIH3T3 cells were followed for CV1 cells
# as §1
# [3] = system: CfEcR/RXR-based switch; test: Luciferase reporter assay of truncated CfEcR and MmRXR receptor pairs in NIH3T3 cells (Example 2); conditions: NIH3T3 cells, 0, 1, 5 or 25 uM ligand, 48 hr; FIGS. 11-14
# Procedure: Briefly, polynucleotides encoding EcR or RXR receptors were truncated at the junctions of A/B, C, D, E and F domains and fused to either a GAL4 DNA binding domain encoding polynucleotide (SEQ ID NO: 41) for CfEcR, or a VP16 activation domain encoding polynucleotide (SEQ ID NO: 45) for MmRXR as described in Example 1. The resulting receptor truncation/fusion polypeptides were assayed in NIH3T3 cells. Plasmid pFRLUC (Stratagene) encoding a luciferase polypeptide was used as a reporter gene construct and pTKRL (Promega) encoding a Renilla luciferase polypeptide under the control of the constitutive TK promoter was used to normalize the transfections as described above. The analysis was performed in triplicates and mean luciferase counts were determined as described above.
# Gene expression cassettes comprising polynucleotides encoding either full length or truncated CfEcR polypeptides fused to a GALA. […] The cells were harvested, lysed and luciferase reporter activity was measured in the cell lysates. […]
# [4] = system: CfEcR; test: Comparison of switches in the mammalian cell lines tested (Tables 1-4); conditions: see Tables 1-4
# Procedure: Several commercially available lipofactors as well as electroporation methods were evaluated and the best conditions for transfection of each cell line were developed. CHO, NIH3T3, 293 and CV1 cells were grown to 60% confluency. DNAs corresponding, to the various switch constructs outlined in Examples 1.1 through 1.10 were transfected into CHO cells, NIH3T3 cells, 293 cells, or CV1 cells as follows.
# as §1
compound,measurement,setting,value
"CCc1c(OC)cccc1C(=O)NN(C(=O)c1cc(C)cc(C)c1)C(C)(C)C [N-(2-ethyl-3-methoxybenzoyl)-N′-(3,5-dimethylbenzoyl)-N′-tert-butylhydrazine]","Mean Fold Activation Through N-(2-ethyl-3-methoxybenzoyl)-N′-(3,5-dimethylbenzoyl)-N′-t-butylhydrazine",[1],3 fold
same,"Mean Fold Activation Through N-(2-ethyl-3-methoxybenzoyl)-N′-(3,5-dimethylbenzoyl)-N′-t-butylhydrazine",[2],1 fold
same,sensitivity of the EcR/RXR switch to the ligand,[3],much more sensitive
same,potency as activators of CfEcR as compared to DmEcR,[4],more potent activators of CfEcR
